Data on 4 compounds can be found in patent US6365622B1 (Sigma-Tau HealthScience S.p.A., priority 1998, dated 2002).

The test system of data set [1] is brain cells of Wistar rats. The experiment in a line: Survival and growth of isolated brain cells treated with IGF-I, carnitines and α-lipoic acid. It counts as cell-based. The settings on record: 24 hours after addition; IGF-I 25 ng/ml, acetyl L-carnitine 100 ng/ml, carnitine mixture 100 ng/ml. Here is the method:
To this end, brain cells of Wistar rats were isolated according to the method described by Thanguipon (Thanguipon W., Dev. Brain Res., 11, 177, 1983) and were distributed on plates with a density of 3×10^5/cm^2. To the culture medium was added cytosine arabino-furanoside ([…]) to prevent the replication of non-neuronal cells. After eight days, the cells were washed and maintained in a culture in which the serum was replaced with BME (Basal Eagles Medium, Life Technologies, Gaithersburg, Md.) containing a 5 mM KCl concentration.
Cell survival and growth in culture were observed 24 hours after addition of the substances to the medium, on 35 mm disks in contact with 10 ng/ml of fluorescein acetate according to the technique described by Jones (Jones K. H., J. Histochem. Cytochem., 33, 77, 1985). The cell count was done with a fluorescence microscope.

For data set [2], the system named is sorbitol in ocular lens and sciatic nerve of diabetic rats. The experiment in a line: Sorbitol content in ocular lens and sciatic nerve in the diabetic rat (streptozotocin). Format: in vivo. The settings on record: i.p. eight days, acetyl L-carnitine 100 mg/kg, carnitine mixture 100 mg/kg, α-lipoic acid 25 mg/kg. Here is the method:
These tests were conducted in a group of rats in which diabetes was induced by means of the intravenous administration of 50 mg/kg of streptozotocin. One week after injection, serum glucose was tested and those rats were considered diabetic which presented serum glucose values above 450 mg/dl. These animals then received intraperitoneal injections, for eight consecutive days, of acetyl L-carnitine (100 mg/kg), or carnitine mixture (acetyl L-carnitine+propionyl L-carnitine+isovaleryl L-carnitine in a […] weight ratio to one another) (100 mg/kg), or (x-lipoic acid (25 mg/kg), either alone or in various combinations.
After eight days of treatment, after suitable isolation, the sorbitol concentration present in both the sciatic nerve and the ocular lens of diabetic rats was measured before and after the treatment administered.

Data set [3] has as its system neuromuscular conduction in diabetic rats. The experiment in a line: Neuromuscular conduction test in the diabetic rat (streptozotocin). Format: in vivo. Particulars: after 4 weeks. Here is the method:
In these tests, we induced experimental diabetes in rats by intravenously injecting the experimental animals (rats with a mean weight of 300 g) with 50 mg/kg of streptozotocin. In the animals with induced diabetes (serum glucose above 450 mg/dl) the neuromuscular conduction velocity (NMCN7) was measured. To this end, the sciatic nerve was isolated (2 cm length) and the soleus muscle was separated from the gastrocnemius and its distal tendon cut and connected up to an isometric transducer which recorded the muscular contraction force (MCF). The muscle was stimulated via the sciatic nerve by means of two electrodes inserted at a distance of 10 mm from the nerve and connected up to a stimulator.
A bipolar electrode was placed in the distal end of the muscle for displaying the electromyogram via an oscilloscope.
The NMCV was measured in m/sec, dividing the distance between the stimulation electrodes by the mean difference in latency between the start of the […] potentials evoked in the two sites. The MCF was expressed in mm.

The subject of data set [4] is proprioceptive sensory perception abnormalities induced by cisplatin. The experiment in a line: Cisplatin-induced sensory neuronal lesions (rotarod test). It counts as in vivo. Particulars: mouse rotarod; cisplatin 10 mg/kg s.c. seven days; oral seven days acetyl L-carnitine 300 mg/kg, carnitine mixture 300 mg/kg, α-lipoic acid 50 mg/kg. Here is the method:
The proprioceptive sensory perception abnormalities induced by cisplatin in the mouse were evaluated by means of the rotarod test (Apfel, S. C., Ann. Neurol., 29, 89, 1991).

In data set [5] the test system is alloxan-induced hyperglycaemia. The experiment in a line: Experimental diabetic hyperglycaemia test (alloxan). Format: in vivo. Particulars: alloxan hyperglycaemic rat; for Serum glucose, Initial: before treatment; for Serum glucose, After 21 days: oral for three weeks, acetyl L-carnitine 200 mg/kg, α-lipoic acid 50 mg/kg. Here is the method:
Controlling serum glucose is therefore one of the most important means of preventing diseases related to diabetes. […] The hyperglycaemia was induced by subcutaneous injection of alloxan (100 mg/kg) in the rat, and those rats were considered hyperglycaemia which presented serum glucose levels above 450 mg/dl seven days after the alloxan injection.
Treatment with the test substances was given orally for a period of three weeks. At the end of this period, serum glucose was measured in the various groups of rats, both hyperglycaemic and treated.

The subject of data set [6] is tibial nerve after cutting the sciatic nerve in diabetic rats. The experiment in a line: Sciatic nerve regeneration test in diabetic rats (alloxan, cut sciatic nerve). It counts as in vivo, rat. The settings on record: thirty days after cutting the sciatic nerve, diet 200 mg/kg acetyl L-carnitine or carnitine mixture, 50 mg/kg α-lipoic acid. Here is the method:
The technique used in these tests is the one described by Fernandez (Fernandez E., Int. J. Clin. Pharmacol. Res., 10, 85, 1990).
Diabetes (serum glucose above 450 mg/dl) was induced in a group of rats by subcutaneous injection of 100 mg/kg of alloxan. […] The compounds were administered a week before cutting the sciatic nerve and for thirty days after cutting.
The sciatic nerve was cut under anaesthesia and after exposing 1 cm of it at the level of the sciatic foramen. The border of the lesion was marked with an epineural suture. Thirty days after cutting the nerve, the tissue of the tibial nerve, one of the main divisions of the sciatic nerve, was examined, after sacrificing the animals. Four cross-sections of the tibial nerve measuring approximately 4 mm in length were thus subjected to morphological and morphometric examination by means of a semiautomatic image analyser (Zeiss Videoplan Image Analyser).
The number of regenerating axons and their density per […] were counted, as well as the degenerate elements.

In data set [7] the test system is cerebral ischaemia induced by occluding the middle cerebral artery (MCA). The experiment in a line: Neuroprotective activity in experimental cerebral ischaemia (endothelin-1 occlusion of the MCA). It counts as in vivo. The settings on record: rat, i.v. 5 minutes after endothelin; acetyl L-carnitine 50 mg/kg, carnitine mixture 50 mg/kg, α-lipoic acid 20 mg/kg; read three days later. Here is the method: Occlusion of the artery is induced, and the resulting ischaemia can be checked three days after this procedure by transcardiac perfusion of a solution of paraformaldehyde (4% in PBS).
After removing the brain, it was placed in fixative containing 10% sucrose, and cryostatic sections ([…]) fixed with cresyl violet were examined under the optical microscope.
The volume of the infarcted area was calculated according to the method described by Park (Park C. K., Anns. Neurol., 20-150, 1989).

The subject of the next data set is wobbler mice. The experiment in a line: Motor co-ordination abnormality test in wobbler mice. Format: in vivo. Particulars: oral twenty days; for percentage increase in running time: acetyl L-carnitine 200 mg/kg, carnitine mixture 200 mg/kg, α-lipoic acid 50 mg/kg, time to run 10 cm; for holding time on the edge of an inclined platform (in words): versus controls. Here is the method:
These tests were conducted in “wobbler mice”, that is to say animals that present an unsteady, staggering gait, an abnormal position of the paws and a reduced speed of movement. These abnormalities are related to progressive atrophy of the motoneurons and musculo-cutaneous nerve fibres, particularly as affecting the anterior limbs. The tests were conducted according to the procedure proposed by Mitsumoto (Mitsumoto H., Annal. Neurol., 36, 14, 1994). […] The examination was performed by evaluating, in the treated animals versus controls, the time that each animal holds on to the edge of an inclined platform (holding time) and also the time it takes to run a distance of 10 cm (running time).

Data set [8] in a line: Toxicological tests: high single doses, parenteral and oral. Format: in vivo. Particulars: rats and mice.

In the case of “IGF-I: insulin-like growth factor, a peptide of the proinsulin group (somatomedins)”, the “Cell growth (% vs controls)” value in [1] amounted to 45 ± 2.8 % vs controls.

As to `O=C(O)CCCCC1CCSS1` (stereo not drawn) [α-lipoic acid], the “Cell growth (% vs controls)” value in [1] was 5 ± 0.39 % vs controls. For the same compound, in data set [2], the “Sorbitol, Lens” value was found to be 30.8 ± 3.2 nmol/mg and the “Sorbitol, Sciatic nerve” value turned out to be 1.08 ± 0.10 nmol/mg. Besides, in data set [3], the “MCF (muscular contraction force)” value was determined as 41.9 ± 3.3 mm and the “NMCV (neuromuscular conduction velocity)” value is reported as 40.1 ± 1.5 m/sec. Further, in [4], the “Equilibrium time” value turned out to be 9.9 ± 0.8 s. Further, in data set [5], the “Serum glucose, Initial” value came to 502.8 ± 36 mg/dL and the “Serum glucose, After 21 days” value was determined as 360.4 ± 30 mg/dL. In [6], the “Density of tibial nerve degenerate elements (per 100 nm^2)” value is recorded as 0.20 ± 0.04 per 100 nm^2 and the “Number of tibial nerve degenerate elements” value is reported as 590 ± 0.70. The “Extent of ischaemia (volume in mm^3) due to occlusion of the MCA, Volume” value in data set [7] was 34.5 ± 2.1 mm^3. For the same compound, in the data set with wobbler mice, the “percentage increase in running time” value turned out to be 40 ± 3.9% and the “holding time on the edge of an inclined platform (in words)” value is recorded as “improves”.

As to `N.N.[Cl][Pt][Cl]` [Cisplatin, cisplatin], the “Equilibrium time” value in data set [4] came to 8.4 ± 0.8 s.

Regarding `CC(=O)O[C@H](CC(=O)[O-])C[N+](C)(C)C` [Acetyl L-carnitine, acetyl L-carnitine], the “Cell growth (% vs controls)” value in data set [1] is given as 5 ± 0.51 % vs controls. For the same compound, in [2], the “Sorbitol, Lens” value is recorded as 32.7 ± 2.5 nmol/mg and the “Sorbitol, Sciatic nerve” value is recorded as 1.15 ± 0.11 nmol/mg. For the same compound, the “amount administered orally without any of the animals dying” value in data set [8] (oral) is “more than 500 mg/kg”. For the same compound, the “amount administered parenterally without any of the animals dying” value in data set [8] (parenteral) is reported as “more than 250 mg/kg”. Also, in [3], the “MCF (muscular contraction force)” value is 40.6 ± 3.4 mm and the “NMCV (neuromuscular conduction velocity)” value amounted to 38.5 ± 1.9 m/sec. Also, in data set [4], the “Equilibrium time” value was determined as 9.5 ± 0.6 s. Besides, in [5], the “Serum glucose, Initial” value turned out to be 509.5 ± 28 mg/dL and the “Serum glucose, After 21 days” value came out at 405.9 ± 25 mg/dL. In data set [6], the “Density of tibial nerve degenerate elements (per 100 nm^2)” value turned out to be 0.16 ± 0.02 per 100 nm^2 and the “Number of tibial nerve degenerate elements” value is given as 560 ± 61. Moreover, in [7], the “Extent of ischaemia (volume in mm^3) due to occlusion of the MCA, Volume” value was 25.6 ± 1.5 mm^3. Besides, in the data set with wobbler mice, the “percentage increase in running time” value is 35 ± 3.2% and the “holding time on the edge of an inclined platform (in words)” value is given as “improves”.
